Measurements reported in patent publication US20260022142A1, “MACROCYCLIC IMMUNOMODULATORS” (Bristol-Myers Squibb Company, priority 2022, published 2026).
Bridge positions count the residues as written; N and C are the ends. Square brackets hold non-standard residues; d marks the D form. Peptide text beside a SMILES is read from it. * marks the point of attachment. ξ: configuration not given here. Bip = N[C@@H](Cc1ccc(-c2ccccc2)cc1)C(=O)O; Phe(3-Me) = Cc1cccc(C[C@H](N)C(=O)O)c1; Cha = N[C@@H](CC1CCCCC1)C(=O)O; Carboxymethyl = O=C(O)C*; Orn = NCCC[C@H](N)C(=O)O; Aun = NCCCCCCCCCCC(=O)O; Dab = NCC[C@H](N)C(=O)O; Dap = NC[C@H](N)C(=O)O; AEEA = NCCOCCOCC(=O)O; ξC = NC(CS)C(=O)O

What follows are compounds tested against T1, PD-1/PD-L1 interaction (PE-labeled human PD-L1-Ig binding to Jurkat cell line over-expressing human PD-1) (Homo sapiens, UniProt Q15116) (assay: Jurkat-PD-1 Cell Binding High-Content Screening Assay (CBA)). Details: Jurkat cell line over-expressing human PD-1; PE-labeled PD-L1-Ig 20 nM final; read-out: Jurkat hPD1-PDL1 IC50.
T1 construct: expressed in transfected cells; host or cells: Jurkat
T1 sequence (Q15116 25-288): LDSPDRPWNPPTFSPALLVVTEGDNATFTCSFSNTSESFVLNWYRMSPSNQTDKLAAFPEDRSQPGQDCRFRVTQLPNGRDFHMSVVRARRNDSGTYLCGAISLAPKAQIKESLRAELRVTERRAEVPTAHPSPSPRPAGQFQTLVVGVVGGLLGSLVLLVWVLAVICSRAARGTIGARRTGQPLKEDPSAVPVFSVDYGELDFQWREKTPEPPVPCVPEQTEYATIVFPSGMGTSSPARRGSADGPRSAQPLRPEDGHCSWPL
Format: cell-based
How it was run: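 Binding of fluorescent PD-L1-Ig (20 nM final) to Jurkat-PD-1 cells was measured by automated imaging after 1 h, following a 2 h compound pre-treatment at 37° C.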
With `CC(C)C[C@H]1NC(=O)[C@H](CCCN)NC(=O)[C@H](CCC(=O)O)NC(=O)[C@H](Cc2ccc(-c3ccccc3)cc2)NC(=O)[C@H](C(C)C)NC(=O)[C@H](Cc2c[nH]c3ccccc23)NC(=O)[C@H](CC(=O)O)NC(=O)[C@H](Cc2ccc(OCC(=O)O)cc2)NC(=O)[C@H](CN)NC(=O)CSC[C@@H](C(=O)N[C@@H](CCN)C(=O)NCCOCCOCC(=O)NCCCCCCCCCCC(=O)O)NC(=O)[C@H](CCCCN)NC(=O)[C@H](C(C)C)NC(=O)[C@H](CC2CCCCC2)NC(=O)[C@H](CCN)NC1=O` [Compound 2660] ({CH2CO}-[Dap]Y(Carboxymethyl)DWV[Bip]E[Orn][dL][Dab][Cha]VKC[Dab][AEEA][Aun]-OH; thioether N-14) the IC50 was 11.4 nM.
For `Cc1cccc(C[C@@H]2NC(=O)[C@H](CC(=O)O)NC(=O)[C@H](Cc3ccc(OCC(=O)O)cc3)NC(=O)[C@H](CN)NC(=O)CSC[C@@H](C(=O)N[C@@H](CCN)C(=O)NCCOCCOCC(=O)NCCCCCCCCCCC(=O)O)NC(=O)[C@H](CN)NC(=O)[C@H](C(C)C)NC(=O)[C@H](CC3CCCCC3)NC(=O)[C@H](CCN)NC(=O)[C@@H](CC(C)C)NC(=O)[C@H](CCCN)NC(=O)[C@H](CCC(=O)O)NC(=O)[C@H](Cc3ccc(-c4ccccc4)cc3)NC(=O)[C@H](C(C)C)NC2=O)c1` [Compound 2661] ({CH2CO}-[Dap]Y(Carboxymethyl)D[Phe(3-Me)]V[Bip]E[Orn][dL][Dab][Cha]V[Dap]C[Dab][AEEA][Aun]-OH; thioether N-14), the IC50 was 10.9 nM.
`Cc1cccc(C[C@@H]2NC(=O)[C@H](CC(=O)O)NC(=O)[C@H](Cc3ccc(OCC(=O)O)cc3)NC(=O)[C@H](CN)NC(=O)CSC[C@@H](C(=O)N[C@@H](CCN)C(=O)NCCOCCOCC(=O)NCCCCCCCCCCC(=O)O)NC(=O)[C@H](CCCNC(=N)N)NC(=O)[C@H](C(C)C)NC(=O)[C@H](CC3CCCCC3)NC(=O)[C@H](CCN)NC(=O)[C@@H](CC(C)C)NC(=O)[C@H](CCCN)NC(=O)[C@H](CCC(=O)O)NC(=O)[C@H](Cc3ccc(-c4ccccc4)cc3)NC(=O)[C@H](C(C)C)NC2=O)c1` [Compound 2662] ({CH2CO}-[Dap]Y(Carboxymethyl)D[Phe(3-Me)]V[Bip]E[Orn][dL][Dab][Cha]VRC[Dab][AEEA][Aun]-OH; thioether N-14) gave an IC50 of 11 nM.
`CC(C)C[C@H]1NC(=O)[C@H](CCCN)NC(=O)[C@H](CCC(=O)O)NC(=O)[C@H](Cc2ccc(-c3ccccc3)cc2)NC(=O)[C@H](C(C)C)NC(=O)[C@H](Cc2c[nH]c3ccccc23)NC(=O)[C@H](CC(=O)O)NC(=O)[C@H](Cc2ccc(OCC(=O)O)cc2)NC(=O)[C@H](CN)NC(=O)CSCC(C(=O)NCCOCCOCC(=O)NCCCCCCCCCCC(=O)O)NC(=O)[C@H](CCCCN)NC(=O)[C@H](C(C)C)NC(=O)[C@H](CC2CCCCC2)NC(=O)[C@H](CCN)NC1=O` (stereo partly drawn) [Compound 2665] ({CH2CO}-[Dap]Y(Carboxymethyl)DWV[Bip]E[Orn][dL][Dab][Cha]VK[ξC][AEEA][Aun]-OH; thioether N-14) showed an IC50 of 22.2 nM.
`Cc1cccc(C[C@@H]2NC(=O)[C@H](CC(=O)O)NC(=O)[C@H](Cc3ccc(OCC(=O)O)cc3)NC(=O)[C@H](CN)NC(=O)CSC[C@@H](C(=O)NCCOCCOCC(=O)NCCCCCCCCCCC(=O)O)NC(=O)[C@H](CN)NC(=O)[C@H](C(C)C)NC(=O)[C@H](CC3CCCCC3)NC(=O)[C@H](CCN)NC(=O)[C@@H](CC(C)C)NC(=O)[C@H](CCCN)NC(=O)[C@H](CCC(=O)O)NC(=O)[C@H](Cc3ccc(-c4ccccc4)cc3)NC(=O)[C@H](C(C)C)NC2=O)c1` [Compound 2666] ({CH2CO}-[Dap]Y(Carboxymethyl)D[Phe(3-Me)]V[Bip]E[Orn][dL][Dab][Cha]V[Dap]C[AEEA][Aun]-OH; thioether N-14) showed an IC50 of 18 nM.
